Laboratory results from US11666578B2, “Small molecule inhibitors of CDK12/CDK13” (The Scripps Research Institute, priority 2018, dated 2023).
Where two headings read alike, the source gives them in different places.

Tests used:
[1] = Microsome stability, human liver microsomes; type: in vitro ADME; details: read-out: Microsome stability t1/2 (H)
[2] = Microsome stability, rat liver microsomes; type: in vitro ADME; details: read-out: Microsome stability t1/2 (R)
CYP 2C9 = CYP 2C9 (Homo sapiens, UniProt P11712); assay: Cytochrome P450 inhibition assay, 2C9; type: in vitro ADME
CYP 2C9, sequence (P11712 whole entry): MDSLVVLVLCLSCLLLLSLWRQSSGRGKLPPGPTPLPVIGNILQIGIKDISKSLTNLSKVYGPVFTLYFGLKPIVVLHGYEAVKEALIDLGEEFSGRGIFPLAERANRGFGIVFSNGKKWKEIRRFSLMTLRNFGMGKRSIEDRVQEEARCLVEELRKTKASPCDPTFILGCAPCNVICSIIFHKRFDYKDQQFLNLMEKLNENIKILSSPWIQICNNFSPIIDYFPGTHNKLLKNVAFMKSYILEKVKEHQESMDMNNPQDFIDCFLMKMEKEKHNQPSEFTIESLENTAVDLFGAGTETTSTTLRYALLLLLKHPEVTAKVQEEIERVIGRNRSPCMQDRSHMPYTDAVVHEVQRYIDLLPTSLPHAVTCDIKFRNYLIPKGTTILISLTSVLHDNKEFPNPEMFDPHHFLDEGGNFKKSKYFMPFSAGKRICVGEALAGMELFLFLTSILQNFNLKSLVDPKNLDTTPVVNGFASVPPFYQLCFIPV

CYP 2D6 = CYP 2D6 (Homo sapiens, UniProt P10635); assay: Cytochrome P450 inhibition assay, 2D6; type: in vitro ADME
CYP 2D6, sequence (P10635 whole entry): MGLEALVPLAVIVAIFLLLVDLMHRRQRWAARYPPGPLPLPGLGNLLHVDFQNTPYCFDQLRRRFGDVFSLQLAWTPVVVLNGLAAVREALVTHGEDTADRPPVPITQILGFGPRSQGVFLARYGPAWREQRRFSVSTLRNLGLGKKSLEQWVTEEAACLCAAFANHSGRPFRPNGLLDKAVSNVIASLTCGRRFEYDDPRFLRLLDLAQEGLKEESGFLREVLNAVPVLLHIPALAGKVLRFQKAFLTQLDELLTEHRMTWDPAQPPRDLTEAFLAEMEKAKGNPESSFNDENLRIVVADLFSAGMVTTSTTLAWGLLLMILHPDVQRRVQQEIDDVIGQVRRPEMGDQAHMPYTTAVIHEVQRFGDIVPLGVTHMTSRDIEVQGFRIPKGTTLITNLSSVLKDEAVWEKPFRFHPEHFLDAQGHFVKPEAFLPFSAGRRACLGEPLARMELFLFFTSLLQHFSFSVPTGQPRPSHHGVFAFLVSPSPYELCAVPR

Mouse PK = type: in vivo; details: for T1/2: 10/10/80 DMSO/Tween-80/water; for Cmax: 20 mg/kg; for AUC: read-out: AUCINF_dos (converted)
MDA-MB-231 cells = assay: MDA-MB-231 cell proliferation combination assay, combination index (CompuSyn, Chou and Talalay); type: cell-based
Text: Multimodal use of chemotherapy remains ineffective in metastatic Her2+ and triple negative breast cancers (TNBC). In TNBC, targeted therapies in addition to Olaparib are desperately needed and determination of combination treatments need to be established. Because it is known that CDK12 and CDK13 control expression of genes involved in DNA damage repair, we examined whether inhibition of CDK12/13 augmented the killing effect of a select set of TNBC clinical agents. […] The CI offers a quantitative measure to determine if a combination of agents acts in synergy (CI<1), additively (CI=1), or is antagonistic (CI>1).
Cell proliferation was measured 72 hr after compound or vehicle treatment using Cell-Titer Glo (Promega) according to the manufacturers' instructions. EC50 values were determined using non-linear regression and a four-parameter algorithm (GraphPad Prism5). For clonogenic assays, cells were plated in 6-well dishes in triplicate at a density of 500-1000 cells per well. After overnight incubation, compound or vehicle (DMSO) was added to media for 72 hr and cells were allowed to grow out for 7-10 days, during which media was changed every 2-3 days in the absence of compound. […] Colonies with greater than 50 cells were counted using a low magnification light microscope.

BCM-3613 tumors = assay: PDX efficacy study, BCM-3613 orthotopic tumors; type: in vivo, SCID/Beige mice
Protocol: Studies were performed to determine the efficacy of the highly specific dual CDK12/CDK13 or single CDK13 inhibitors in pre-clinical models of human breast cancer. Four patient derived orthotopic breast xenograft models were used to validate targeting CDK12/13 or CDK13 alone as an anti-cancer strategy in subsets of breast cancer. […] Experiments therefore included 7-12 tumor bearing mice per experimental or control (vehicle) cohort with mice randomized prior to treatment to determine random sampling such that the median tumor size between cohorts was the same. All tumors sizes were measured throughout the duration of the experiment and graphed in figures without excluding any samples. For survival analyses, mice were euthanized when moribund, and/or when tumors became ulcerated or reached greater than 1.0 cm^3. All cell-based assays were performed in triplicate and repeated at least 3 times.
Briefly, fresh xenograft tumor fragments (˜1 mm^3) were transplanted into the cleared mammary fat pad of recipient SCID/Bg mice (Charles River Laboratories). Tumor growth was measured in two dimensions using calipers and tumor volume calculated (v=0.5×length×width^2). […] Growth rates were monitored at indicated times and tumors were harvested for histopathology and lysate preparation for western blotting once vehicle treated tumors reached 0.8-1 cm^3.

Cn1cc(-n2cnc3c(NCc4nc5cc(Cl)c(Cl)cc5[nH]4)nc(N4CCOCC4)nc32)cn1 [Compound 5, N-((5,6-dichloro-1H-benzo[d]imidazol-2-yl)methyl)-9-(1-methyl-1H-pyrazol-4-yl)-2-morpholino-9H-purin-6-amine]
half-life [1]: 19 min
half-life [2]: 16 min
CYP inhibition 2C9 (CYP 2C9): 70 % inh
CYP inhibition 2D6 (CYP 2D6): 66 % inh
AUC % Extrap (Mouse PK; IP 20 mg/kg): 3.1%
CI_obs (Mouse PK; IP 20 mg/kg): 8.3 mL/min/kg
Tmax (Mouse PK; IP 20 mg/kg): 79.8 min
T1/2 (Mouse PK; IP 20 mg/kg): 290 min
AUC % Extrap (Mouse PK; PO 20 mg/kg): 1.7%
CI_obs (Mouse PK; PO 20 mg/kg): 29.5 mL/min/kg
F % (Mouse PK; PO 20 mg/kg): 29.7%
Tmax (Mouse PK; PO 20 mg/kg): 160 min
Cmax (Mouse PK; PO 20 mg/kg): 1301 ng/mL
Cmax (Mouse PK; PO 20 mg/kg, read-out: Cmax): 2610 nM
T1/2 (Mouse PK; PO 20 mg/kg): 237 min
AUC (Mouse PK; in vivo, IP 20 mg/kg): 41700 ng·h/mL
AUC (Mouse PK; plasma, PO 20 mg/kg): 11800 ng·h/mL
Synergy with irinotecan (MDA-MB-231 cells; compound 5 plus Irinotecan): highly synergistic
Synergy with Olaparib (MDA-MB-231 cells; compound 5 plus Olaparib): highly synergistic
Tumor growth, combination with trastuzumab (BCM-3613 tumors; BCM-3613 PDX, compound 5 and trastuzumab, p=0.01): sensitized these tumor to trastuzumab
Tumor growth, single agent (BCM-3613 tumors; BCM-3613 trastuzumab-resistant PDX, vs vehicle): significantly delayed tumor growth
